The results in this text go back to patent US20260069581A1, “METHODS AND COMPOSITIONS FOR CANCER THERAPY” (OHIO STATE INNOVATION FOUNDATION, priority 2020, published 2026).

The structures appear in SMILES notation.

In experiment [1] the test system is HR activity in EJDR-reporter-stable U2OS cells. Briefly: EJDR reporter assay, HR-GFP. In kind it is cell-based. To be noted: ISceI-induced. The protocol:
EJDR reporter assay. The EJDR assay was described previously (20). EJDR reporter cells were plated at 5×10^5 cells per well in 10% FBS and RPM11640. After drug treatments, cells were grown in 10% Tet-free FBS (100-800; Gemini) and RPM11640. Incorporated I-Sce1 was induced with Shield1 (632189; Clontech) and triamcinolone (TA) (T6510; Sigma Aldrich) ligands for 24 hours. NHEJ and HR repair activities were assessed 48 hours post induction by quantification of DsRed- and GFP-positive cells on Cytomics FC 500 Flow Cytometer (Beckman Coulter, Brea, CA).
It was unclear whether the potent ability of HDAC inhibitor to induce apoptosis of AML cells in combination with NAMPT inhibition was due to the loss of HR or NHEJ activity alone or both together. Accordingly, HR and NHEJ activities in AML cells exposed to these treatments were examined using the EJDR reporter system (FIG. 6B). EJDR-reporter-stable U2OS cells were treated with vehicle, single agents, or drug combination before being incubated with ligands, TA and Shield 1. […] The expression of D-NHEJ pathway factors, Ku70 and DNA-PKcs, and ATM pathway mediators, CHEK1 and CHEK2, were abolished by AR-42 and KPT-9274 co-treatment. […] Therefore, suppression of HDAC8 can attenuate HR and D-NHEJ gene expressions, resulting in NAMPT inhibitor sensitivity.
In general terms: Reporter assays use an easily measured gene product as a stand-in for the process of interest.

The subject of another experiment is IDH2-WT TF-1 cells. Briefly: Phospho-H2A.X (pS139) flow cytometry. In kind it is cell-based. The conditions noted are these: IDH2-WT TF-1, 48 hours, 0.8 μM AR-42, 0.1 μM KPT-9274. As to the method:
(§1) Thereafter, cells were fixed, permeabilized and stained with BV421 mouse anti-H2A.X (pS139) (Clone N1-431). Stained cells were analyzed by flow cytometry. Results are shown as mean±SEM of duplicates. *p<0.05. N.S.: not significant. […] Results are shown as mean±SEM of duplicates. *p<0.05. […] MOLM13 cells were treated with vehicle control, 0.4 μM or 0.8 μM AR-42 alone, 0.1 μM or 0.25 μM KPT-2974 alone and drug combination for 24 hours before being subject to Western blotting analysis of HR, NHEJ and ATM markers. GAPDH served as loading control. Results are representative of two independent experiments. In the FIG. the treatment concentrations, protein detected in the given Western blot, and molecular weight of the protein detected are as shown in the figure. […] Scrambled or shHDAC8-transduced MOLM13 cells were treated with vehicle, 0.1 μM or 0.25 μM KPT-2974 before being subject to immunoblotting analysis of DNA repair targets. GAPDH serves as loading control. Results are representative of two independent experiments. In the FIG. the treatment concentrations, protein detected in the given Western blot, and molecular weight of the protein detected are as shown in the figure. […] PAPR1 was immunoprecipitated and mono-ADP-ribosylation was detected by western blotting. Results are representative of two independent experiments. […]

For the next experiment, the system named is MOLM13 cells. Briefly: Western blotting of HR, NHEJ and ATM markers. In kind it is cell-based, human. As to the method:
as §1

Turning to `CC(C)[C@H](C(=O)Nc1ccc(C(=O)NO)cc1)c1ccccc1` [AR-42, (S)—N-Hydroxy-4-(3-methyl-2-phenylbutanamido)benzamide], the “HR activity (HR-GFP reporter)” value in experiment [1] is on record as “nearly completely abolished”. Further, in the experiment with IDH2-WT TF-1 cells, the “fluorescence intensity of phospho-H2A.X staining” value is recorded as “slightly increased”. In addition, the “levels of HR components CtIP, Rad51, phosphorylated BRCA1 and phosphorylated ATM” value in the experiment with MOLM13 cells (0.4 μM and 0.8 μM AR-42, monotherapy or with KPT-9274, 24 hours) is “significantly reduced”.

In the case of `Nc1ccc(/C=C/C(=O)NCc2cc3cc(-c4ccc(C(=O)N5CCC(F)(F)CC5)cc4)cc(-c4ccc(F)cc4)c3o2)cn1` [KPT-9274, (E)-3-(6-aminopyridin-3-yl)-N-[[5-[4-(4,4-difluoropiperidine-1-carbonyl)phenyl]-7-(4-fluorophenyl)-1-benzofuran-2-yl]methyl]prop-2-enamide], the “HR activity (HR-GFP reporter)” value in experiment [1] is “did not impact HR activity”. In addition, the “fluorescence intensity of phospho-H2A.X staining” value in the experiment with IDH2-WT TF-1 cells is reported as “slightly increased”. The “abundance of D-NHEJ and ATM pathway mediators” value in the experiment on MOLM13 cells (shHDAC8-transduced MOLM13, 0.1 μM or 0.25 μM KPT-9274) is listed as “synergistically downregulated”.
